Laboratory results from ChEMBL document CHEMBL3817789 (2016).
≈ marks a conversion by molar mass, not a printed value.

Legend:
Type in all cases: functional
[1] = test system: Staphylococcus aureus; assay: Antibacterial activity against methicillin-resistant Staphylococcus aureus isolate SDSM1503 after 24 hrs by broth microdilution method; conditions: isolate SDSM1503, 24 h
[2] = test system: Staphylococcus aureus; assay: Antibacterial activity against methicillin-sensitive Staphylococcus aureus isolate SDS15016 after 24 hrs by broth microdilution method; conditions: isolate SDS15016, 24 h
[3] = test system: Candida albicans; assay: Antifungal activity against clinical isolates of Candida albicans SC5314 after 48 hrs by broth microdilution method; conditions: SC5314, 48 h

## Oc1cc2ccc1-c1c(ccc(Br)c1O)CCc1ccc(cc1)Oc1cc(cc(Br)c1O)CC2
[1]
  MIC: 16 mg/L (≈ 27.5 µM)
[2]
  MIC: 8 mg/L (≈ 13.7 µM)
[3]
  MIC80: > 64 mg/L

## COc1cccc2c1-c1ccc(cc1O)CCc1ccc(O)c(c1)Oc1ccc(cc1)CC2
[1]
  MIC: 4 mg/L (≈ 9.12 µM)
[2]
  MIC: 2 mg/L (≈ 4.56 µM)
[3]
  MIC80: > 64 mg/L

## Oc1ccc2cc1Oc1ccc(cc1)CCc1ccc(Br)c(O)c1-c1ccc(c(Br)c1O)CC2
[1]
  MIC: 16 mg/L (≈ 27.5 µM)
[2]
  MIC: 4 mg/L (≈ 6.87 µM)
[3]
  MIC80: > 64 mg/L

## Oc1ccc2cc1Oc1ccc(cc1)CCc1cccc(O)c1-c1ccc(c(Br)c1O)CC2
[1]
  MIC: 8 mg/L (≈ 15.9 µM)
[2]
  MIC: 2 mg/L (≈ 3.97 µM)
[3]
  MIC80: > 64 mg/L

## CO/N=C(\C(=O)N[C@@H]1C(=O)N2C(C(=O)O)=C(COC(C)=O)CS[C@H]12)c1csc(N)n1 [CEFOTAXIME]
[1]
  MIC: > 128 mg/L
[2]
  MIC: 4 mg/L (≈ 8.78 µM)

## Oc1ccc2cc1Oc1ccc(cc1)CCc1cccc(O)c1-c1cc(Br)c(cc1O)CC2
[1]
  MIC: 4 mg/L (≈ 7.95 µM)
[2]
  MIC: 2 mg/L (≈ 3.97 µM)
[3]
  MIC80: > 64 mg/L

## OC(Cn1cncn1)(Cn1cncn1)c1ccc(F)cc1F [FLUCONAZOLE]
[3]
  MIC80: 2 mg/L (≈ 6.53 µM)

## Oc1cc2ccc1Oc1cc(cc(O)c1O)CCc1ccc(c(O)c1)-c1c(O)cccc1CC2
[1]
  MIC: 16 mg/L (≈ 35 µM)
[2]
  MIC: 8 mg/L (≈ 17.5 µM)
[3]
  MIC80: > 64 mg/L

## Oc1ccc2cc1Oc1ccc(cc1)CCc1c(Br)ccc(O)c1-c1cc(Br)c(cc1O)CC2
[1]
  MIC: 4 mg/L (≈ 6.87 µM)
[2]
  MIC: 2 mg/L (≈ 3.43 µM)
[3]
  MIC80: 8 mg/L (≈ 13.7 µM)

## Oc1ccc2cc1Oc1ccc(cc1)CCc1c(Br)ccc(O)c1-c1ccc(c(Br)c1O)CC2
[1]
  MIC: 4 mg/L (≈ 6.87 µM)
[2]
  MIC: 2 mg/L (≈ 3.43 µM)
[3]
  MIC80: 8 mg/L (≈ 13.7 µM)

## Oc1cc2ccc1Oc1cc(ccc1O)CCc1ccc(c(O)c1)-c1c(O)cccc1CC2
[1]
  MIC: 4 mg/L (≈ 9.08 µM)
[2]
  MIC: 2 mg/L (≈ 4.54 µM)
[3]
  MIC80: > 64 mg/L

## COc1cc2ccc1-c1c(O)cccc1CCc1ccc(cc1)Oc1cc(ccc1O)CC2
[1]
  MIC: 8 mg/L (≈ 18.2 µM)
[2]
  MIC: 2 mg/L (≈ 4.56 µM)
[3]
  MIC80: > 64 mg/L

## Oc1cc2ccc1-c1c(O)cccc1CCc1ccc(cc1)Oc1cc(cc(O)c1O)CC2
[1]
  MIC: 8 mg/L (≈ 18.2 µM)
[2]
  MIC: 2 mg/L (≈ 4.54 µM)
[3]
  MIC80: > 64 mg/L

## Cc1onc(-c2ccccc2)c1C(=O)N[C@@H]1C(=O)N2[C@@H]1SC(C)(C)[C@@H]2C(=O)[O-].[Na+]
[1]
  MIC: > 128 mg/L
[2]
  MIC: 8 mg/L

## Oc1ccc2cc1Oc1ccc(cc1)CCc1ccc(Br)c(O)c1-c1cc(Br)c(cc1O)CC2
[1]
  MIC: 4 mg/L (≈ 6.87 µM)
[2]
  MIC: 2 mg/L (≈ 3.43 µM)
[3]
  MIC80: > 64 mg/L

## CC(C)(O/N=C(\C(=O)N[C@@H]1C(=O)N2C(C(=O)[O-])=C(C[n+]3ccccc3)CS[C@H]12)c1csc(N)n1)C(=O)O [CEFTAZIDIME]
[1]
  MIC: > 128 mg/L
[2]
  MIC: 4 mg/L (≈ 7.32 µM)

## Cc1onc(-c2ccccc2Cl)c1C(=O)N[C@@H]1C(=O)N2[C@@H]1SC(C)(C)[C@@H]2C(=O)O [CLOXACILLIN]
[1]
  MIC: > 128 mg/L
[2]
  MIC: 0.5 mg/L (≈ 1.15 µM)
